Data on 25 molecules can be found in patent US9765092B2, “Tricyclic piperidine compounds” (ACTELION PHARMACEUTICALS LTD, priority 2013, dated 2017).

Molecules are shown by their SMILES.

The target in the first assay is human TPH1 (Homo sapiens (Human), UniProt P17752). As to the kind of experiment: Biochemical in vitro assay using fluorescence readout (TPH1 inhibition).
human TPH1, sequence (P17752 whole entry): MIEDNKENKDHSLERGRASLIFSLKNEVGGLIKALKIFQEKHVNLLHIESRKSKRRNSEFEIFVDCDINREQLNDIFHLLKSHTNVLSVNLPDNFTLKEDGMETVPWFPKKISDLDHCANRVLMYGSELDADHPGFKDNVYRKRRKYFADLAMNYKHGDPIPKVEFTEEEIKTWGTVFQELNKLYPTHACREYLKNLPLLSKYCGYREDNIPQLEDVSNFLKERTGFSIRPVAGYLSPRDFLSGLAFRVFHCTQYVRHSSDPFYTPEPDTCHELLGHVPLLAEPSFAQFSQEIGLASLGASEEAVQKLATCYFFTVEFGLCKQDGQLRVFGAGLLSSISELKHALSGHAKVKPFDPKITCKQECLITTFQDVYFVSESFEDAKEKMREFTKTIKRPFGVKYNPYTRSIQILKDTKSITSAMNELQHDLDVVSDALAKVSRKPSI
Details: not given
Take `Cc1nn2c3c(nc2s1)CCN(C(=O)COc1ccc(NS(C)(=O)=O)nc1Cl)C3c1ncccc1F` (stereo not shown) [Example 1.35.4, N-(6-chloro-5-(2-(5-(3-fluoropyridin-2-yl)-2-methyl-7,8-dihydro-[1,3,4]thiadiazolo[2′,3′:2,3]imidazo[4,5-c]pyridine-6(5H)-yl)-2-oxoethoxy)pyridin-2-l)methanesulfonamide]: the midpoint of inhibition, the IC50, lay at 35 nM.

Staying with this assay, now noted: full length human TPH1, 40 μM L-tryptophan, 15° C., 60 minutes, fluorescence at 540 nm; mean if determined several times.
`Cc1nn2c3c(nc2s1)CCN(C(=O)COc1ccc(C(F)(F)F)cc1Cl)C3c1cnc(N(C)C)s1` (stereo not shown) [Example 1.22.5, 2-(2-Chloro-4-(trifluoromethyl)phenoxy)-1-(5-(2-(dimethylamino)thiazol-5-yl)-2-methyl-7,8-dihydro-[1,3,4]thiadiazolo[2′,3′:2,3]imidazo[4,5-c]pyridin-6(5H)-yl)ethanone] showed an IC50 of 130 nM.

`Cc1nn2c3c(nc2s1)CCN(C(=O)COc1ccc(C(=O)NCC#N)nc1Cl)C3c1ccc(Cl)cc1F` (stereo not shown) [Example 1.4.23, 6-Chloro-5-(2-(5-(4-chloro-2-fluorophenyl)-2-methyl-7,8-dihydro-[1,3,4]thiadiazolo[2′,3′:2,3]imidazo[4,5-c]pyridin-6(5H)-yl)-2-oxoethoxy)-N-(cyano-methyl)picolinamide] returned an IC50 of 247 nM.

The same assay, now with this note: human TPH1, fluorescence readout.
`COC(=O)c1ccc(C2c3c(nc4sc(C)nn34)CCN2C(=O)COc2ccc(NS(C)(=O)=O)nc2Cl)c(F)c1` (stereo not shown) [Example 1.79.1, methyl-4-(6-(2-((2-chloro-6-(methylsulfonamido)pyridin-3-yl)oxy)acetyl)-2-methyl-5,6,7,8-tetrahydro-[1,3,4]thiadiazolo[2′,3′:2,3]imidazo[4,5-c]pyridin-5-yl)-3-fluorobenzoate] had an IC50 of 17 nM. In the case of `Cc1cc(Cl)ccc1OCC(=O)N1CCc2nc3sccn3c2C1c1ccc(Cl)cc1F` (stereo not shown) [Example 6.4.3, 1-(5-(4-chloro-2-fluorophenyl)-7,8-dihydrothiazolo-[2′,3′:2,3]imidazo[4,5-c]pyridin-6(5H)-yl)-2-(4-chloro-2-methylphenoxy)ethanone], the IC50 came out at 6 nM. The molecule `O=C(COc1cccnc1Cl)N1CCc2nc3sccn3c2C1c1ccc(C(F)F)cc1F` (stereo not shown) [Example 6.16.3, 2-((2-chloropyridin-3-yl)oxy)-1-(5-(4-(difluoromethyl)-2-fluorophenyl)-7,8-dihydrothiazolo[2′,3′:2,3]imidazo[4,5-c]pyridin-6(5H)-yl)ethanone] displayed an IC50 of 15 nM.

The molecule `Cc1nc(C2c3c(nc4sc(C)nn34)CCN2C(=O)COc2ccc(N3CCOCC3)nc2Cl)c(C)o1` (stereo not shown) [Example 1.67.1, 2-((2-chloro-6-morpholinopyridin-3-yl)oxy)-1-(5-(2,5-dimethyloxazol-4-yl)-2-methyl-7,8-dihydro-[1,3,4]thiadiazolo [2′,3′:2,3]imidazo[4,5-c]pyridin-6(5H)-yl)ethanone] yielded an IC50 of 25 nM. `O=C(COc1ccc(NS(=O)(=O)C2CC2)nc1Cl)N1CCc2nc3sccn3c2C1c1sccc1F` (stereo not shown) [Example 6.8.1, N-(6-chloro-5-(2-(5-(3-fluorothiophen-2-yl)-7,8-dihydro-thiazolo[2′,3′:2,3]imidazo[4,5-c]pyridin-6(5H)-yl)-2-oxoethoxy)pyridin-2-yl)cyclopropanesulfonamide] yielded an IC50 of 15 nM. In turn, `Cc1cnc([C@H]2c3c(nc4sc(C)nn34)CCN2C(=O)COc2ccc(N3CCCS3(=O)=O)nc2Cl)c(F)c1` [Example 1.31.17, (R)-2-((2-chloro-6-(1,1-dioxidoisothiazolidin-2-yl)pyridin-3-yl)oxy)-1-(5-(3-fluoro-5-methylpyridin-2-yl)-2-methyl-7,8-dihydro-[1,3,4]thiadiazolo[2′,3′:2,3]imidazo[4,5-c]pyridin-6(5H)-yl)ethanone] came in with an IC50 of 8 nM. In turn, `COc1ccc(C2c3c(nc4sc(C)nn34)CCN2C(=O)COc2ccc(CN3CCOCC3)nc2Cl)c(F)c1` (stereo not shown) [Example 1.3.2, 2-((2-chloro-6-(morpholinomethyl)pyridin-3-yl)oxy)-1-(5-(2-fluoro-4-methoxyphenyl)-2-methyl-7,8-dihydro-[1,3,4]thiadiazolo[2′,3′:2,3]imidazo[4,5-c]pyridin-6(5H)-yl)ethanone] registered an IC50 of 9 nM. Same read-out and setting: under `Cc1cc(Cl)ccc1OCC(=O)N1CCc2nc3sccn3c2C1c1nc2ccccc2s1` (stereo not shown) [Example 6.12.4, 1-(5-(benzo[d]thiazol-2-yl)-7,8-dihydrothiazolo-[2′,3′:2,3]imidazo[4,5-c]pyridin-6(5H)-yl)-2-(4-chloro-2-methylphenoxy)ethanone] stands 36 nM. As to `Cc1ccc(C2c3c(nc4sc(C)nn34)CCN2C(=O)COc2ccc(-c3ncco3)nc2Cl)c(F)c1` (stereo not shown) [Example 1.53.1, 2-((2-chloro-6-(oxazol-2-yl)pyridin-3-yl)oxy)-1-(5-(2-fluoro-4-methylphenyl)-2-methyl-7,8-dihydro-[1,3,4]thiadiazolo[2′,3′:2,3]imidazo[4,5-c]pyridin-6(5H)-yl)ethanone], it took 9 nM to reach half-maximal inhibition (IC50).

With `CCc1nc(Cl)ncc1OCC(=O)N1CCc2nc3sc(C)nn3c2C1c1ccc(C)c(F)c1F` (stereo not shown) [Example 1.61.4, 2-((2-chloro-4-ethylpyrimidin-5-yl)oxy)-1-(5-(2,3-difluoro-4-methylphenyl)-2-methyl-7,8-dihydro-[1,3,4]thiadiazolo[2′,3′:2,3]imidazo[4,5-c]pyridin-6(5H)-yl)ethanone], inhibition was half-maximal at 49 nM (IC50). The same measure, in the same setting: to `Cc1ncc(C2c3c(nc4sc(C)nn34)CCN2C(=O)COc2ccc(C(=O)N(C)C)nc2Cl)s1` (stereo not shown) [Example 1.59.1, 6-chloro-N,N-dimethyl-5-(2-(2-methyl-5-(2-methylthiazol-5-yl)-7,8-dihydro-[1,3,4]thiadiazolo[2′,3′:2,3]imidazo[4,5-c]pyridin-6(5H)-yl)-2-oxoethoxy)picolinamide] belongs 37 nM. Consider `CCc1nc(N2CCCS2(=O)=O)ccc1OCC(=O)N1CCc2nc3sc(C(F)(F)F)nn3c2C1c1ncc(C)cc1F` (stereo not shown) [Example 5.2.1, 2-((6-(1,1-dioxidoisothiazolidin-2-yl)-2-ethylpyridin-3-yl)oxy)-1-(5-(3-fluoro-5-methylpyridin-2-yl)-2-(trifluoromethyl)-7,8-dihydro-[1,3,4]thiadiazolo[2′,3′:2,3]imidazo[4,5-c]pyridin-6(5H)-yl)ethanone], for which the IC50 came to 13 nM. Still for that read-out and setting: to `Cc1nn2c3c(nc2s1)CCN(C(=O)COc1ccc(N2CCOCC2)cc1Cl)C3c1cnc(C2CC2)nc1` (stereo not shown) [Example 1.10.2, 2-(2-chloro-4-morpholinophenoxy)-1-(5-(2-cyclopropyl-pyrimidin-5-yl)-2-methyl-7,8-dihydro-[1,3,4]thiadiazolo [2′,3′:2,3]imidazo[4,5-c]pyridin-6(5H)-yl)ethanone] belongs 18 nM. Same read-out and setting: to `Cc1nn2c3c(nc2s1)CCN(C(=O)COc1ccc(C(=O)N(C)C)nc1Cl)C3c1cccc(Cl)c1F` (stereo not shown) [Example 1.58.1, 6-chloro-5-(2-(5-(3-chloro-2-fluorophenyl)-2-methyl-7,8-dihydro-[1,3,4]thiadiazolo[2′,3′:2,3]imidazo[4,5-c]pyridin-6(5H)-yl)-2-oxoethoxy)-N,N-dimethylpicolinamide] belongs 42 nM; to `O=C(COc1ccc(CN2CCOCC2)cc1Cl)N1CCc2nc3sccn3c2C1c1cccnc1F` (stereo not shown) [Example 6.2.1, 2-(2-chloro-4-(morpholinomethyl)phenoxy)-1-(5-(2-fluoropyridin-3-yl)-7,8-dihydrothiazolo[2′,3′:2,3]imidazo[4,5-c]pyridin-6(5H)-yl)ethanone], 12 nM.

`O=C(COc1ccc(Cl)cc1Cl)N1CCc2nc3sccn3c2C1c1cnn(-c2ccccc2)c1` (stereo not shown) [Example 6.13.2, 2-(2,4-dichlorophenoxy)-1-(5-(1-phenyl-1H-pyrazol-4-yl)-7,8-dihydrothiazolo[2′,3′:2,3]imidazo[4,5-c]pyridin-6(5H)-yl)ethanone] displayed an IC50 of 50 nM.

`Cn1nc(OCC(=O)N2CCc3nc4sccn4c3C2c2nc3ccccc3s2)c(Cl)c1C(F)(F)F` (stereo not shown) [Example 6.12.7, 1-(5-(benzo[d]thiazol-2-yl)-7,8-dihydrothiazolo-[2′,3′:2,3]imidazo[4,5-c]pyridin-6(5H)-yl)-2-((4-chloro-1-methyl-5-(trifluoromethyl)-1H-pyrazol-3-yl)-oxy)ethanone] registered an IC50 of 62 nM. The molecule `Cc1ccc(OCC(=O)N2CCc3nc4sccn4c3C2c2cccnc2F)cc1` (stereo not shown) [Example 6.2.3, 1-(5-(2-fluoropyridin-3-yl)-7,8-dihydrothiazolo[2′,3′:2,3]-imidazo[4,5-c]pyridin-6(5H)-yl)-2-(p-tolyloxy)ethanone] yielded an IC50 of 52 nM.

For the molecule `CS(=O)(=O)Nc1ccc(OCC(=O)N2CCc3nc4scnn4c3C2c2ccc(Cl)cc2F)c(Cl)n1` (stereo not shown) [Example 2.1.1, N-(6-chloro-5-(2-(5-(4-chloro-2-fluorophenyl)-7,8-dihydro-[1,3,4]thiadiazolo[2′,3′:2,3]imidazo[4,5-c]-pyridin-6(5H)-yl)-2-oxoethoxy)pyridin-2-yl)methanesulfonamide], the IC50 is 11 nM. Same read-out and setting: to `Cc1nn2c3c(nc2s1)CCN(C(=O)COc1ccc(N2CCOCC2)nc1Cl)C3c1cncs1` (stereo not shown) [Example 1.39.3, 2-((2-chloro-6-morpholinopyridin-3-yl)oxy)-1-(2-methyl-5-(thiazol-5-yl)-7,8-dihydro-[1,3,4]thiadiazolo[2′,3′:2,3]imidazo[4,5-c]pyridin-6(5H)-yl)ethanone] belongs 5 nM.

In the case of `CCc1nc(C)ccc1OCC(=O)N1CCc2nc3sc(C)nn3c2C1c1cnc(OC(F)F)cc1C` (stereo not shown) [Example 1.15.3, 1-(5-(6-(difluoromethoxy)-4-methylpyridin-3-yl)-2-methyl-7,8-dihydro-[1,3,4]thiadiazolo[2′,3′:2,3]imidazo[4,5c]pyridin-6(5H)-yl)-2-((2-ethyl-6-methylpyridin-3-yl)oxy)ethanone], half-maximal inhibition (IC50) required 156 nM. Regarding `Cc1nn2c3c(nc2s1)CCN(C(=O)COc1ccc(N2CCOCC2)nc1Cl)C3c1ncc(Cl)cc1F` (stereo not shown) [Example 1.33.1, 1-(5-(5-chloro-3-fluoropyridin-2-yl)-2-methyl-7,8-dihydro[1,3,4]thiadiazolo[2′,3′:2,3]imidazo[4,5-c]pyridin-6(5H)-yl)-2-((2-chloro-6-morpholinopyridin-3-yl)oxy)ethanone], half-maximal inhibition (IC50) was put at 2 nM.

Broadly, the IC50 is the concentration that inhibits the measured activity by half.
